Assay results taken from patent US20150098905A1, “METHODS TO DETECT A FUNGAL CELL” (priority 2012, published 2015).
In brackets after ≈: the same amount, converted by molar mass. Numbered stars: 1 amine (or outer) side, 2 acyl side, 3 side chain; on linkers, the order of the positions; unused ones are H or OH. Bridge positions count the residues as written; N and C are the ends. Square brackets hold non-standard residues; d marks the D form. Peptide text beside a SMILES is read from it. * marks the point of attachment. hTyr(3S-OH,4S-OH,3'-OSO3H) = N[C@H](C(=O)O)[C@H](O)[C@@H](O)c1ccc(O)c(OS(=O)(=O)O)c1; pTerphenylCO(4''-OnC5H11) = CCCCCOc1ccc(-c2ccc(-c3ccc(C(=O)*)cc3)cc2)cc1; Orn(4R-OH,5R-OH) = O=C([C@H](C[C@@H](O)[C@@H](O)N[*:3])N[*:1])[*:2]; hTyr(3S-OH,4S-OH) = N[C@H](C(=O)O)[C@H](O)[C@@H](O)c1ccc(O)cc1; Pro(3S-OH,4S-Me) = C[C@H]1CN[C@H](C(=O)O)[C@H]1O; X1 = CCCCCOc1ccc(-c2cc(-c3ccc(C(=O)*)cc3)no2)cc1; Gln(3R-OH) = NC(=O)C[C@@H](O)[C@H](N)C(=O)O; Hyp = O=C(O)[C@@H]1C[C@@H](O)CN1

Tests used:
[1] = system: C. albicans and A. fumigatus cells; test: Pretreatment with unlabeled antifungal drug followed by probe labeling; format: cell-based, Candida albicans, Aspergillus fumigatus; conditions: for effect of pretreatment on CSF-BOD labeling: pretreatment C. albicans 1 h, A. fumigatus 2 h, azoles at one dilution below the MIC, then CSF-BOD; for effect of pretreatment on labeling of cells by POS-BOD: pretreatment with unlabeled drug, then POS-BOD
Description: To illustrate the potential of CSF-BOD and POS-BOD for visualizing fungal cells, the reagent was used to probe for the presence of Candida and Aspergillus species in a variety of matrices including solid and liquid growth media. The clinical A. fumigatus wild type strain R21 and Candida albicans ATCC strain 90028 were used for all the experiments. For Aspergillus, one drop of yeast extract peptone dextrose (YPD) agar was placed in the upper right corner of each well of a 15-well multitest slide followed by the addition of 10 μl of saline containing 105 conidia of R21. The slide was placed in a sterile petri dish with distilled water to provide a moist environment and incubated in a 37° C. incubator for 10-16 hours to facilitate germination and growth of hyphal elements. A 10 μl aliquot of CSF-BOD (170 ng/ml) or POS-BOD (150 ng/ml) was added to each well and incubated for 6 h at 37° C., followed by washing 3 times with sterile water and drying by vacuum. For Candida, an overnight culture of C. albicans was grown, washed by centrifugation and resuspended in dH2O. The yeast cells were added to RPMI and incubated at 200 rpm for 1 h at 37° C. to form germ tubes before being washed and resuspended in a 1 ml solution of CSF-BOD (120 ng/mil) or POS-BOD (150 ng/ml). The cells with drug were incubated again at 200 rpm for 1 h at 37° C., washed and resuspended in 50 ml of dH2O. A 15 well slide was prepared using a poly-L-lysine to tightly adhere cells to the wells. A 10 μL aliquot of Candida cells was placed on each well and incubated for 10 minutes, aspirated off, and 1 μL Slow Fade Antifade reagent was added to prolong the fluorescent life and moisture level of the cells on the each slide. Each slide was observed under 100× magnification with the total internal reflection objective lens (TIRF) of a Nikon Eclipse 90i fluorescent microscope. The 15 wells of the slides were examined individually using Volocity 3D Image Analysis Software (PerkinElmer). Individual cells, hyphal elements and clusters of cells were visualized, analyzed, and captured in bright field lighting and repeated under a Green Fluorescent Protein (GFP) light setting.

C. albicans = test: Antifungal activity (MIC) of labeled and unlabeled caspofungin; format: cell-based; conditions: Candida albicans
Protocol: A derivative of CSF using BODIPY (BOD), an analog that resembles fluorescein but is smaller and more hydrophobic, was produced to test the CSF-BOD with various fungal pathogens. BODIPY-succinimidate was incubated with pure CSF in the presence of triethylamine as proton acceptor in DMF. The crude product was purified by TLC silica gel chromatography and characterized using mass spectroscopy, fluorescence and UV spectroscopy. The modified agent retained its specificity and sensitivity to the fungal target. […] BODIPY coupled to posaconazole (POS) was formed by modifying a single hydroxyl group of posaconazole with succinic anhydride (FIG. 6).

[2] = system: A. fumigatus wild type strain R21; test: Cell labeling with fluorescent probe, fluorescence microscopy; format: cell-based, Aspergillus fumigatus; conditions: control, species not given
Description: To illustrate the potential of CSF-BOD and POS-BOD for visualizing fungal cells, the reagent was used to probe for the presence of Candida and Aspergillus species in a variety of matrices including solid and liquid growth media. The clinical A. fumigatus wild type strain R21 and Candida albicans ATCC strain 90028 were used for all the experiments. For Aspergillus, one drop of yeast extract peptone dextrose (YPD) agar was placed in the upper right corner of each well of a 15-well multitest slide followed by the addition of 10 μl of saline containing 105 conidia of R21. The slide was placed in a sterile petri dish with distilled water to provide a moist environment and incubated in a 37° C. incubator for 10-16 hours to facilitate germination and growth of hyphal elements. A 10 μl aliquot of CSF-BOD (170 ng/ml) or POS-BOD (150 ng/ml) was added to each well and incubated for 6 h at 37° C., followed by washing 3 times with sterile water and drying by vacuum. For Candida, an overnight culture of C. albicans was grown, washed by centrifugation and resuspended in dH2O. […] Individual cells, hyphal elements and clusters of cells were visualized, analyzed, and captured in bright field lighting and repeated under a Green Fluorescent Protein (GFP) light setting.

Compound	effect of pretreatment on CSF-BOD labeling [1]	effect of pretreatment on labeling of cells by POS-BOD [1]	MIC (C. albicans) [µg/mL]	labeling by unconjugated drug or dye alone [2]
CCC(C)n1ncn(-c2ccc(N3CCN(c4ccc(OCC5COC(Cn6cncn6)(c6ccc(Cl)cc6Cl)O5)cc4)CC3)cc2)c1=O (stereo not shown) [itraconazole]	no effect			
CC[C@@H]([C@H](C)O)n1ncn(-c2ccc(N3CCN(c4ccc(OC[C@@H]5CO[C@@](Cn6cncn6)(c6ccc(F)cc6F)C5)cc4)CC3)cc2)c1=O [posaconazole]	no effect	greatly diminished or eliminated the fluorescence signal		
OC(Cn1cncn1)(Cn1cncn1)c1ccc(F)cc1F [fluconazole]	no effect			
CCCCCOc1ccc(-c2ccc(-c3ccc(C(=O)N[C@H]4C[C@@H](O)[C@@H](O)NC(=O)[C@@H]5[C@@H](O)[C@@H](C)CN5C(=O)[C@H]([C@@H](C)O)NC(=O)[C@H]([C@H](O)[C@@H](O)c5ccc(O)cc5)NC(=O)[C@@H]5C[C@@H](O)CN5C(=O)[C@H]([C@@H](C)O)NC4=O)cc3)cc2)cc1 [anidulafungin] ({pTerphenylCO(4''-OnC5H11)}-[Orn(4R-OH,5R-OH)]T[Hyp][hTyr(3S-OH,4S-OH)]T[Pro(3S-OH,4S-Me)]; lactam 1-C)	eliminated the labeling			
CC[C@H](C)C[C@H](C)CCCCCCCCC(=O)N[C@H]1C[C@@H](O)[C@@H](NCCN)NC(=O)[C@@H]2[C@@H](O)CCN2C(=O)[C@H]([C@H](O)CCN)NC(=O)[C@H]([C@H](O)[C@@H](O)c2ccc(O)cc2)NC(=O)[C@@H]2C[C@@H](O)CN2C(=O)[C@H]([C@@H](C)O)NC1=O [caspofungin]	intensified the fluorescence	little effect	0.06 (≈ 0.0549 µM)	failed to produce any labeling
C[C@@H](c1ncncc1F)[C@](O)(Cn1cncn1)c1ccc(F)cc1F [voriconazole]	no effect	greatly diminished or eliminated the fluorescence signal		
CCCCCOc1ccc(-c2cc(-c3ccc(C(=O)N[C@H]4C[C@@H](O)[C@@H](O)NC(=O)[C@@H]5[C@@H](O)[C@@H](C)CN5C(=O)[C@H]([C@H](O)CC(N)=O)NC(=O)[C@H]([C@H](O)[C@@H](O)c5ccc(O)c(OS(=O)(=O)O)c5)NC(=O)[C@@H]5C[C@@H](O)CN5C(=O)[C@H]([C@@H](C)O)NC4=O)cc3)no2)cc1 [micafungin] (X1-[Orn(4R-OH,5R-OH)]T[Hyp][hTyr(3S-OH,4S-OH,3'-OSO3H)][Gln(3R-OH)][Pro(3S-OH,4S-Me)]; lactam 1-C)	eliminated the labeling			
boron-dipyrromethene [BODIPY]				failed to produce any labeling
